Read-outs that look alike come from different tables or passages of the source.
Tests used:
[1] = biological target: recombinant TDP1 (Homo sapiens, UniProt Q9NUW8); experiment: Gel-based assay measuring the inhibition of recombinant TDP1; type: biochemical; settings: for IC50: Table 5, determined in duplicate
Experimental: A 5′-[^32P]-labeled single-stranded DNA oligonucleotide containing a 3′-phosphotyrosine (N14Y) was generated as described by Dexheimer et al. (J. Med. Chem. 2009, 52, 7122-7131). The DNA substrate was then incubated with 5 μM recombinant TDP1 in the absence or presence of inhibitor for 15 min at room temperature in a buffer containing 50 mM Tris HCl, pH 7.5, 80 mM KCl, 2 mM EDTA, 1 mM DTT, 40 μg/ml BSA and 0.01% Tween-20. Reactions were terminated by the addition of 1 volume of gel loading buffer [99.5% (v/v) formamide, 5 mM EDTA, 0.01% (w/v) xylene cyanol, and 0.01% (w/v) bromophenol blue]. Samples were subjected to a 16% denaturing PAGE and gels were exposed after drying to a PhosphorImager screen (GE Healthcare). Gel images were scanned using a Typhoon 8600 (GE Healthcare) and densitometric analyses were performed using the ImageQuant software (GE Healthcare).
The TDP1 inhibitory activities of the O-2-substituted indenoisoquinolines were measured by determining their abilities to inhibit the hydrolysis of the phosphodiester linkage between tyrosine and the 3′-end of a DNA oligonucleotide substrate and thus prevent the generation of an oligonucleotide with a free 3′-phosphate (N14P, Scheme 13). Therefore, the disappearance of the gel band for N14P indicates TDP1 inhibition.
Tyrosyl-DNA phosphodiesterase 1 (TDP1) is a DNA repair enzyme that repairs cytotoxic DNA damage induced by Top1 inhibitors.

[2] = tested on: breast MCF-7; experiment: NCI60 antiproliferative activity, cytotoxicity GI50; type: cell-based, human; settings: Homo sapiens, MCF7, 48 h, read-out: Cytotoxicity (GI50) breast MCF-7
Experimental: Selected compounds were tested for antiproliferative activity in the National Cancer Institute's developmental therapeutics assay 60 cell line screen (NCI60). The cells were incubated with the tested compounds at 100, 10, 1, 0.1, and 0.01 μM concentrations for 48 h before treatment with sulforhodamine B dye. Optical densities were recorded, and their ratios relative to that of the control were plotted as percentage growth against the log 10 of the tested compound concentrations.

[3] = tested on: all human cancer cell lines successfully tested; experiment: NCI screen mean graph midpoint (MGM) for growth inhibition; type: cell-based; settings: Table 6; for MGM (mean GI50 across cell lines): all human cancer cell lines successfully tested, range 10^−8 to 10^−4 molar, with standard error; for GI50's against various cell lines (in words): NCI60 cell lines
Procedure, shortened: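 NCI60 panel cells exposed to compound at 100, 10, 1, 0.1 and 0.01 μM for 48 h, then sulforhodamine B staining. Percentage growth versus control plotted against log concentration; MGM is the midpoint across all lines tested.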

[4] = biological target: T1, Human recombinant Top1 (Homo sapiens, UniProt P11387); experiment: Topoisomerase 1-mediated DNA cleavage reactions (B), 117-bp DNA oligonucleotide; type: biochemical; set-up: key to Top1 inhibitory activity (level): 0, no detectable activity; +, weak activity; ++, similar activity to compound 33; +++, greater activity than 33; ++++, equipotent to 32; Ambiguous scores (e.g., between two values) are designated with parentheses (e.g., ++(+) would be between ++ and +++); key to Top1 (compound-induced DNA cleavage due to Top1 inhibition): 0, no detectable activity; +, weak activity; ++, similar activity to compound 5; +++, greater activity than 34; ++++ , equipotent to 32; The (+) ranking indicates the activity lies between two given values; settings: Table 5; for Top1 inhibitory activity (level): relative to compounds 32 and 33; for Top1 (compound-induced DNA cleavage due to Top1 inhibition): semiquantitative scale relative to 1 μM camptothecin (32) or MJ-III-65 (34)
T1 construct: made in house
T1 sequence (P11387 1-765): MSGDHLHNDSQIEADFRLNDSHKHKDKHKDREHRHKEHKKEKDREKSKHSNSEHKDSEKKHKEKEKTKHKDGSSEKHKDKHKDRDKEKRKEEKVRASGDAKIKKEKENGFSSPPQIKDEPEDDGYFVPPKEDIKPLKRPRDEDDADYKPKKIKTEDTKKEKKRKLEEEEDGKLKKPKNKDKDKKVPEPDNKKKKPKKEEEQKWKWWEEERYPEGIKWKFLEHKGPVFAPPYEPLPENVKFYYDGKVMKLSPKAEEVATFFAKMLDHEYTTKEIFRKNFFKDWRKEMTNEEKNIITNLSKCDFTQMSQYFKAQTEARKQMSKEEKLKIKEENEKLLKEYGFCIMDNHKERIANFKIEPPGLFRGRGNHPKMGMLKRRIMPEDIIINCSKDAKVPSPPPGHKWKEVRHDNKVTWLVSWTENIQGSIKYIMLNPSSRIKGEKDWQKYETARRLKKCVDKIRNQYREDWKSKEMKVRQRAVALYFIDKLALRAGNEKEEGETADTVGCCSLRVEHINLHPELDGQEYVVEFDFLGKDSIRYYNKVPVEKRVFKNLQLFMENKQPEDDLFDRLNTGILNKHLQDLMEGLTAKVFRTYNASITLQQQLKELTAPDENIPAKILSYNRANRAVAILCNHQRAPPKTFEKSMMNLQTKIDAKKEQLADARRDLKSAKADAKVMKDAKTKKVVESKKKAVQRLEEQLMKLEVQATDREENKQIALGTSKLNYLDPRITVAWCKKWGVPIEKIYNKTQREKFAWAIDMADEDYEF
Experimental: Human recombinant Top1 was purified from baculovirus as described in Bailly, C. Curr. Med. Chem. 2000, 7, 39-58. DNA cleavage reactions were prepared as previously reported with the exception of the DNA substrate in Saltz, et al. Oncologist 1997, 2, 402-409.
Approximately 2 nM radiolabeled DNA substrate was incubated with recombinant Top1 in 20 μL of reaction buffer [10 mM Tris-HCl (pH 7.5), 50 mM KCl, 5 mM MgCl2, 0.1 mM EDTA, and 15 μg/mL BSA] at 25° C. for 20 min in the presence of various concentrations of compounds. […] Aliquots of each reaction mixture were subjected to 20% denaturing PAGE. Gels were dried and visualized using a phosphoimager and ImageQuant software (Molecular Dynamics).
All of the new indenoisoquinoline derivatives with C-2 side chains were tested in Top1-mediated DNA cleavage assays. For this purpose, a ^32P 3′-end labeled 117-bp DNA fragment was incubated with Top1 and four 10-fold dilutions starting from 100 μM of a tested compound. The DNA fragments were separated on 20% PAGE denaturing gels. The Top1 inhibitory activities were assigned on the basis of the visual inspection of the number and intensities of the gel bands corresponding to Top1-mediated DNA cleavage fragments. […] Ambiguous scores (e.g., between two values) are designated with parentheses (e.g., ++(+) would be between ++ and +++).

[5] = tested on: colon HCT-116; experiment: COMPARE screening (NCI human cancer cell line screen), cytotoxicity GI50; type: cell-based; settings: Homo sapiens, HCT-116, 48 h, read-out: Cytotoxicity (GI50) Colon HCT-116
Procedure, shortened: (§1)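 Sulforhodamine B read-out after 48 h exposure over five log concentrations (0.01-100 μM) in the NCI 60-cell-line panel. GI50 derived from percentage growth, as OD ratio to control, versus log10 concentration.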

[6] = tested on: CNS SF-539; experiment: as above; type: cell-based; settings: Homo sapiens, CNSSF-539, 48 h, read-out: Cytotoxicity (GI50) CNS SF-539
Procedure, shortened: as §1

[7] = tested on: prostate DU-145; experiment: as above; type: cell-based; settings: Homo sapiens, DU-145, 48 h, read-out: Cytotoxicity (GI50) prostate DU-145
Procedure, shortened: as §1

[8] = tested on: ovarian OVCAR-3; experiment: as above; type: cell-based; settings: Homo sapiens, OVCAR-3, 48 h, read-out: Cytotoxicity (GI50) Ovarian OVCAR-3
Procedure, shortened: as §1

[9] = tested on: renal SN12C; experiment: as above; type: cell-based; settings: Homo sapiens, SN12C, 48 h, read-out: Cytotoxicity (GI50) renal SN12C
Procedure, shortened: as §1

[10] = tested on: lung HOP-62; experiment: as above; type: cell-based; settings: Homo sapiens, HOP-62, 48 h, read-out: Cytotoxicity (GI50) lung HOP-62
Procedure, shortened: as §1

[11] = tested on: melanoma UACC-62; experiment: as above; type: cell-based; settings: Homo sapiens, UACC-62, 48 h, read-out: Cytotoxicity (GI50) melanoma UACC-62
Procedure, shortened: as §1

[12] = read-out: TDP1 (IC50, semiquantitative scale)
[13] = read-out: TDP1 inhibitory activity (potency score)

recombinant TDP1, sequence (Q9NUW8 whole entry): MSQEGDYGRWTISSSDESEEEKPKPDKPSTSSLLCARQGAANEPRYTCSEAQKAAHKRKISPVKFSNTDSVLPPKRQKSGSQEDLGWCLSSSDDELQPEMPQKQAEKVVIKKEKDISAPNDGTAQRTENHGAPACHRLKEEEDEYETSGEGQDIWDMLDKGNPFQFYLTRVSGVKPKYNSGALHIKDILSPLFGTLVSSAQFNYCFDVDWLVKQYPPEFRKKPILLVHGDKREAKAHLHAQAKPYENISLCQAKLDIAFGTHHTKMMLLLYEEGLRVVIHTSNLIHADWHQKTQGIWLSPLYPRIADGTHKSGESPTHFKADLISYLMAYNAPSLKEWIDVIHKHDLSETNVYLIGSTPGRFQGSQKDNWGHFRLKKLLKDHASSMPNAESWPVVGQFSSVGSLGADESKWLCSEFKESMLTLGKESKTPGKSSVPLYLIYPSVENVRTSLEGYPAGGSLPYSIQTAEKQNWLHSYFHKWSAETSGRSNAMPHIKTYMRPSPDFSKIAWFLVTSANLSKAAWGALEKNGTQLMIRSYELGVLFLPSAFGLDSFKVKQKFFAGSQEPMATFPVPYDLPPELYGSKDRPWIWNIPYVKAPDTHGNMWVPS

SMILES | IC50 [1, 12] | IC50 [1, 13] | GI50 [2] | MGM (mean GI50 across cell lines) [3] | Top1 inhibitory activity (level) [4] | Top1 (compound-induced DNA cleavage due to Top1 inhibition) [4] | GI50 [5] | GI50 [6] | GI50 [7] | GI50 [8] | GI50 [9] | GI50 [10] | GI50 [11] | melting point | GI50's against various cell lines (in words) [3] | TDP1 inhibitory activity (in words) [1]
COc1cc2c(=O)n(CCCN3CCOCC3)c3c(c2cc1OCCCN1CCCC1)C(=O)c1cc2c(cc1-3)OCO2 [Compound 28, 3-Methoxy-6-(3-morpholinopropyl)-2-(3-(pyrrolidin-1-yl)propoxy)-5H-[1,3]dioxolo[4′,5′:5,6]indeno[1,2-c]isoquinoline-5,12(6H)-dione] | 1000 to 37000 nM | 1000 to 37000 nM | 100 nM | 600 ± 370 nM | ++ | ++ | 200 nM | 200 nM | 40 nM | 1200 nM | 200 nM | 200 nM | 300 nM | – | – | –
COc1cc2c(=O)n(CCCN3CCOCC3)c3c(c2cc1OCCCN)C(=O)c1cc2c(cc1-3)OCO2 [Compound 22, 2-(3-Aminopropoxy)-3-methoxy-6-(3-morpholinopropyl)-5H-[1,3]dioxolo [4′,5′:5,6]indeno[1,2-c]isoquinoline-5,12(6H)-dione] | 37000 to 111000 nM | – | 200 nM | 500 ± 92 nM | – | – | 200 nM | 200 nM | 300 nM | 400 nM | 300 nM | 300 nM | 300 nM | > 350 °C | submicromolar | –
COC(=O)COc1cc2c3c(n(CCCN4CCOCC4)c(=O)c2cc1OC)-c1cc2c(cc1C3=O)OCO2 [Compound 29, Methyl 2-((3-Methoxy-6-(3-morpholinopropyl)-5,12-dioxo-6,12-dihydro-5H-[1,3]dioxolo[4′,5′:5,6]indeno[1,2-c]isoquinolin-2-yl)oxy)acetate] | > 111000 nM | – | 400 nM | 3100 ± 1200 nM | + or ++ | ++ | 1100 nM | 100 nM | 900 nM | 5800 nM | 800 nM | 100 nM | 1000 nM | – | low micromolar | –
C=CCOc1cc2c3c(n(CCCN4CCOCC4)c(=O)c2cc1OC)-c1cc2c(cc1C3=O)OCO2 [Compound 20, 2-(Allyloxy)-3-methoxy-6-(3-morpholinopropyl)-5H-[1,3]dioxolo[4′,5′:5,6]indeno [1,2-c]isoquinoline-5,12(6H)-dione] | > 111000 nM | – | < 10 nM | 100 ± 35 nM | + or ++ | + | 10 nM | 10 nM | < 10 nM | 300 nM | < 10 nM | < 10 nM | < 10 nM | 199 to 200 °C (dec.) | submicromolar | no detectable TDP1 inhibitory activity
COc1cc2c(=O)n(CCCN3CCOCC3)c3c(c2cc1OCCCN1CCCCC1)C(=O)c1cc2c(cc1-3)OCO2 [Compound 27, 3-Methoxy-6-(3-morpholinopropyl)-2-(3-(piperidin-1-yl)propoxy)-5H-[1,3]dioxolo [4′,5′:5,6]indeno[1,2-c]isoquinoline-5,12(6H)-dione] | 12000 to 37000 nM | 12000 to 37000 nM | 40 nM | 1600 ± 230 nM | +++ | +++ | 1100 nM | 30 nM | 200 nM | 5400 nM | 400 nM | 300 nM | 9600 nM | – | low micromolar | –
COc1cc2c(=O)n(CCCN3CCOCC3)c3c(c2cc1OCCCN1CCOCC1)C(=O)c1cc2c(cc1-3)OCO2 [Compound 25, 3-Methoxy-2-(3-morpholinopropoxy)-6-(3-morpholinopropyl)-5H-[1,3]dioxolo [4′,5′:5,6]indeno[1,2-c]isoquinoline-5,12(6H)-dione] | > 111000 nM | – | 20 nM | 200 ± 28 nM | +++ | +++ | 100 nM | 100 nM | 20 nM | 700 nM | 100 nM | 30 nM | 200 nM | – | submicromolar | no TDP1 inhibitory activity was observed

— patent US9796753B2, “N-substituted indenoisoquinolines and syntheses thereof” (Purdue Research Foundation, priority 2005, dated 2017)
